# From patent US4487708A (priority 1981, dated 1984)
# Tests used:
# [1] = compatibility of neutralizing amines with hydroquinone in solution; assay type: physicochemical; settings: combined with hydroquinone
# From the text: To provide convenient single-drum treatments, it was decided to test-formulate various dioxo aromatic compounds with neutralizing amines.
# [2] = room temperature oxygen scavenging test (flask with dissolved oxygen probe); settings: for % O2 Removed: 60 seconds; for % O2 Removed / % O2 Removed At 60 Seconds: 23-25 °C; for % O2 Removed At 60 Seconds: Table 11, hydroquinone 93 ppm; for % O2 Removed, 1 Minute: hydroquinone: pH 8.6, 22.5 °C, ratio 0.94, initial O2 7.7 ppm
# From the text: The test apparatus basically consisted of a 1 liter, three-necked flask fitted with a dissolved oxygen probe and a pH electrode. The intent of this apparatus was to show reaction kinetics differences rather than precise measurements (within seconds) of reaction times.
# The flask was filled with deionized water which had been stripped of some dissolved oxygen by bubbling nitrogen through a diffuser stone. The pH was adjusted to the desired level with sodium hydroxide. The flask was sealed with a rubber septum, the dissolved oxygen probe and the pH electrode. A magnetic stirrer bar was left in the flask for mixing. The mixer was turned on, and dissolved oxygen and temperature readings were recorded until the dissolved oxygen reached a constant value. Next, the appropriate quantity of additive was injected through the septum using a hypodermic syringe. The initial mole ratio of treatment to dissolved oxygen was determined by weighing feed chemical and measuring the oxygen concentration. […] Dissolved oxygen and temperature readings were then taken at appropriate time intervals.
# Using the same apparatus and procedure as described in Example 4 above, oxygen scavenging experiments were performed by injecting 1 ml of stock solution into a glass vessel containing 1070 ml of air-saturated, demineralized water adjusted to the appropriate pH with 7N sodium hydroxide. […] The final pH values indicated are for the test water.
# The stock solution concentrations are presented in terms of weight % aqueous. The stock solutions were each 100 grams total. […] The tests were conducted at ambient temperature (23°-25° C.).
# The tests were conducted at ambient temperature (23°-25° C.).
# [3] = for mu-amine required to effect dissolution: saturated solution, 10.0 g hydroquinone (6.3 + 3.7 g) in 89.5 g water
# Method: Volumes of mu-amines required to effect dissolution were recorded and converted to weights via density.
# [4] = oxygen scavenging efficacy at elevated temperature and pressure (hot water flow system)
# Method: In a first series of tests, the oxygen scavenging efficacies of various materials were evaluated under conditions of elevated temperature and pressure. The test apparatus used was essentially a stainless steel hot water flow system equipped with appropriate monitoring instrumentation. Demineralized feedwater, adjusted to the appropriate pH and initial dissolved oxygen level (controlled by nitrogen sparging), was pumped from a reservoir at ambient temperature into a once-through heater. Temperature was monitored continuously by means of thermocouples at several locations along the length of the flow tubing. A solution containing the oxygen scavenger test material was loaded into a pump driven syringe and fed continuously to the heated flow stream through a port containing a stainless steel ribbon mixing baffle. The feedwater containing dissolved oxygen and the test material then traversed the flow tubing via a by-pass comprising an additional length of coiled tubing. Contact (or reaction) time of the test material and dissolved oxygen was governed by the choice of coil length. The tendency of the temperature to drop during residence in the coiled tubing was offset by the use of thermostatted heating tapes which maintained the temperature in this tubing at 78±3° C. Upon exiting the coiled tubing, the stream flowed through a sample cooler to render the temperature of the liquid compatible with the operating range of a membrane-type dissolved oxygen probe. The cooled liquid was analyzed for dissolved oxygen via a D.O. flow cell, and pH was potentiometrically monitored in the flow tube immediately downstream of the D.O. probe. Outputs of the temperature, pH and dissolved oxygen probes during operation were monitored via strip chart recorders. The final destination of the reaction mixture was a reservoir which could be drained for analysis of reaction products, if desired.
# Temperature in the system could be maintained at 78±3+ C. under 4±1 psig. Residence time of the feedwater in the flow tube from chemical feed point to D.O. flow cell outlet was 4±0.2 minutes. Approximately 3.5 minutes of this total was spent in a 40' length of 0.402 inch i.d. coiled tubing. Entry into and residence in the sample cooler accounted for 0.5 minute of the total contact time.
# According to an article by J. W. Cohn and R. E. Powell, Jr., J. Amer.
# The test solutions were prepared by initially mixing 10 grams of test material and 90 grams of demineralized water in glass bottles and allowing the mixture to remain in a shaker for several hours. If complete dissolution for a given material was observed after shaking, the pH of the solution was measured. When the pH of the solution was below 10.0, 7N sodium hydroxide was added dropwise until this value was reached. The quantity of added sodium hydroxide was recorded and later used in corrections for the active concentration of the solution. When the pH value of a stock solution was above pH 10.0 without requiring the addition of caustic, the solution was not further modified.
# Results of these tests are reported in TABLE 1 below in terms of percent oxygen removed from the test stream. The precision of the initial and final dissolved oxygen values reported is approximately ±10%. […] The experimental uncertainties decrease with increasing values of percent dissolved oxygen removal.
# The specific experimental conditions were:
# Reaction Time=240±10 seconds
# [5] = dissolution and storage stability of hydroquinone/methoxypropylamine solutions; assay type: physicochemical
# Method: The following 25 gram solutions were prepared and sealed in glass bottles (components listed in order of addition):
# Fifty (50) grams of each of the following solutions were prepared in glass bottles, sealed and placed on a shaker for two hours: […]
# [6] = thermal stability of amines / dioxo aromatic compounds (no method given); assay type: physicochemical; settings: of the amines tested
# [7] = cited from earlier work
# [8] = oxygen removal from feedwater of a working boiler (Example 2)
# Method: In order to compare the performance of hydroquinone with that of hydrazine under field-type conditions, a series of experiments were conducted on the feedwater of a working boiler. The test materials were fed to the deaerator storage tank, and the resultant change, if any, in dissolved oxygen level was measured on a sample flowing from the feedwater line through a membrane-type dissolved oxygen probe.
# During the tests, a relatively wide range of experimental conditions was encountered among the test parameters, reflecting the difficulty of attempting to obtain precise data during experiments performed on a working boiler.
# In order to provide some point of reference for judging oxygen scavenging efficacies while taking into account the diverse conditions experienced on a daily basis, hydrazine control runs were performed, whenever possible, under feedwater and boiler conditions similar to those encountered during testing of other test materials. The hydrazine control runs are reported below in Table 3, also in terms of % oxygen removal.
# [9] = cited from earlier work; remark: listed apart in the source
# [10] = Table 8, mu-amine combined with hydroquinone, 103 ppm each, final pH 9.3-10.5
# [11] = stock mu-amine 1.5 / hydroquinone 10.0 wt. %, HQ:mu-amine 6.67:1
# [12] = stock mu-amine 90.0 / hydroquinone 10.0 wt. %, HQ:mu-amine 1:9
# [13] = stock mu-amine 99.0 / hydroquinone 1.0 wt. %, HQ:mu-amine 1:99
# [14] = Table 9, mu-amine combined with hydroquinone, about 30 ppm / 10 ppm, 78±1 °C, 3-5 psig, 240±10 seconds, final pH 10.3, initial O2 500-750 ppb
# [15] = Table 10, mu-amine combined with hydroquinone, 6.7 ppm each, 78±1 °C, 3-5 psig, 240±10 seconds, final pH 9.7, initial O2 1.0-1.5 ppm
# [16] = Table 5, hydrazine: pH 9.2, 26.5 °C, ratio 10.5, initial O2 0.87 ppm
# [17] = Table 1, 78±3 °C, 4±1 psig, contact 4±0.2 min, feedwater 58-100 ppm, pH 8.9-10.9, initial O2 1.8-2.3 ppm, hydrazine average of 9 runs, values below 20% may be artifacts
# [18] = 6.3 g hydroquinone in 89.5 g demineralized water
molecule,measurement,setting,value
NC1CCCCC1 [Cyclohexylamine],compatibility with hydroquinone in solution,[1],precipitated out of solution
CC(O)CNCC(C)O (stereo not drawn) [Diisopropanolamine],% O2 Removed,[2]; [10],86%
CN(C)CCCN [Dimethylaminopropylamine],mu-amine required to effect dissolution,[3],1.7 grams
same,% O2 Removed,[2]; [10],76%
same,% O2 Removed At 60 Seconds,[2]; [11],94%
same,% O2 Removed At 60 Seconds,"[2]; stock mu-amine 30.0 / hydroquinone 10.0 wt. %, HQ:mu-amine 1:3",99%
same,% O2 Removed At 60 Seconds,[2]; [12],98%
same,% O2 Removed At 60 Seconds,[2]; [13],50%
NCCN [Ethylenediamine],% O2 Removed,[4]; [14],99%
same,% O2 Removed,[2]; [10],85%
COCCCN [Methoxypropylamine],lowest practical MOPA concentration in the mixture,[5]; 10% hydroquinone aqueous solution,2%
same,thermal stability,[6],most thermally stable of the amines tested
same,% O2 Removed,[4]; [15],99%
same,MOPA required to dissolve hydroquinone,"[3]; 10.0 g hydroquinone, neat MOPA",12.5 grams
same,mu-amine required to effect dissolution,[3],1.7 grams
same,% O2 Removed At 60 Seconds,[2]; [11],96%
same,% O2 Removed At 60 Seconds,"[2]; stock mu-amine 2.0 / hydroquinone 10.0 wt. %, HQ:mu-amine 5:1",96%
same,% O2 Removed At 60 Seconds,"[2]; stock mu-amine 3.0 / hydroquinone 10.0 wt. %, HQ:mu-amine 3.33:1",96%
same,% O2 Removed At 60 Seconds,"[2]; stock mu-amine 15.0 / hydroquinone 15.0 wt. %, 1:1",95%
same,% O2 Removed At 60 Seconds,"[2]; stock mu-amine 20.0 / hydroquinone 20.0 wt. %, 1:1",98%
same,% O2 Removed At 60 Seconds,"[2]; stock mu-amine 30.0 / hydroquinone 30.0 wt. %, 1:1",98%
same,% O2 Removed At 60 Seconds,"[2]; stock mu-amine 40.0 / hydroquinone 40.0 wt. %, 1:1",94%
same,% O2 Removed At 60 Seconds,[2]; [12],94%
same,% O2 Removed At 60 Seconds,[2]; [13],96%
same,% O2 Removed,"[2]; Table 12, methoxypropylamine 1.0 / hydroquinone 1.0 wt. %, final pH 8.5",10%
same,% O2 Removed,"[2]; Table 12, methoxypropylamine 1.0 / hydroquinone 6.0 wt. %, final pH 8.4",78%
same,% O2 Removed,"[2]; Table 12, methoxypropylamine 3.0 / hydroquinone 3.0 wt. %, final pH 8.9",74%
same,% O2 Removed,"[2]; Table 12, methoxypropylamine 6.0 / hydroquinone 1.0 wt. %, final pH 9.0",17%
same,% O2 Removed,"[2]; Table 12, methoxypropylamine 6.0 / hydroquinone 6.0 wt. %, final pH 9.0",93%
NCCO [Monoethanolamine],% O2 Removed,[2]; [10],75%
CC(O)CN (stereo not drawn) [Monoisopropanolamine],% O2 Removed,[4]; [15],98%
C1COCCN1 [Morpholine],compatibility with hydroquinone in solution,[1],precipitated out of solution
NCCNCCNCCN [Triethylenetetramine],% O2 Removed,[2]; [10],89%
NN [hydrazine],pH of maximum oxygen scavenging efficacy,[7]; Cohn and Powell 1954,10.0-10.5 pH
same,decomposition temperature,[7]; forms ammonia,Above 400 ° F.
same,rate of reaction with oxygen,"[7]; low temperatures, such as room temperature",very slow at low temperatures
same,"% O2 Removed, 5 Minutes",[2]; [16],2%
same,"% O2 Removed, 1 Minute",[2]; [16],1%
same,% O2 Removed,"[8]; Table 3, control run 1, 1.6 ppm actives, pH 8.8, steam load 11, initial O2 13.0 ppb",69%
same,% O2 Removed,"[8]; Table 3, control run 2, 1.1 ppm actives, pH 9.4, steam load 15, initial O2 4.0 ppb",50%
same,% O2 Removed,"[8]; Table 3, control run 3, 1.2 ppm actives, pH 8.6, steam load 15, initial O2 6.0 ppb",60%
same,% O2 Removed,"[8]; Table 3, control run 4, 1.0 ppm actives, pH 8.8, steam load 15, initial O2 5.8 ppb",55%
same,% O2 Removed,"[8]; Table 3, control run 5, 0.8 ppm actives, pH 9.4, steam load 11, initial O2 3.5 ppb",31%
same,% O2 Removed,"[8]; Table 3, control run 6, 1.6 ppm actives, pH 9.6, steam load 14, initial O2 4.0 ppb",30%
Oc1ccc(O)cc1 [hydroquinone],active hydroquinone concentration of stable aqueous solution,"[5]; 1 to 1 with methoxypropylamine (40%), sealed storage for 12 days",up to 40%
same,% O2 Removed,[4]; [17],97%
same,"dissolution time, solution #1",[3]; [18],23 min
same,"dissolution time, solution #2",[3]; [18],19 min
same,"dissolution time, solution #3",[3]; [18],21 min
same,"% O2 Removed, 1 Minute",[2]; [16],29%
same,% O2 Removed,"[2]; Table 12, mu-amine 0 / hydroquinone 1.0 wt. %, final pH 8.1",9%
same,% O2 Removed,"[2]; Table 12, mu-amine 0 / hydroquinone 3.0 wt. %, final pH 8.0",17%
same,% O2 Removed,"[2]; Table 12, mu-amine 0 / hydroquinone 6.0 wt. %, final pH 7.9",27%
same,aqueous solubility (accepted literature value),[9]; 25 °C,~7%
same,solubility in water,[9]; hydroquinone alone,about 7%
"Nc1ccccc1N [o-phenylenediamine, reference compound]",% O2 Removed,[4]; [17],10%
"Nc1ccc(N)cc1 [p-phenylenediamine, reference compound]",% O2 Removed,[4]; [17],35%
"Oc1cccc(O)c1 [resorcinol, reference compound]",% O2 Removed,[4]; [17],0%
CCC(C)N (stereo not drawn) [sec-Butylamine],compatibility with hydroquinone in solution,[1],compatible with hydroquinone in solution
same,% O2 Removed,[2]; [10],74%
CC(C)(C)N [tert-Butylamine],compatibility with hydroquinone in solution,[1],insoluble mass
Dimethyl(iso)propanolamine,% O2 Removed,[4]; [14],98%
same,% O2 Removed,[2]; [10],73%
